Data from patent US5929254A, “1,2-dioxetane derivatives” (Fujirebio Inc., priority 1996, dated 1999).

Tests used:
[1] = Chemiluminescence on addition to tetrabutylammonium fluoride in DMSO, measured with a fluorescence analyzer; type: physicochemical; settings: tetrabutylammonium fluoride 1.5×10^-1 M, 25° C.
Procedure: 1 ml of a […] dimethylsulfoxide(DMSO) solution of 4-(4-acetyl-3-hydroxyphenyl)-3,3-(bicyclo[3.3.1]nonan-3,7-diyl)-4-methoxy- 1,2-dioxethane (Compound [10]) synthesized in Example 2 was added to 2 ml of 1.5×10^-1 M DMSO solution of tetrabutylammonium fluoride at 25° C.
The luminescence at the moment of the addition of the compound [10] to the DMSO solution of tetrabutylammonium fluoride was measured with a fluorescence analyzer.
1 ml of a 2.94×10^-3 M dimethylsulfoxide (DMSO) solution of 3,3-(bicyclo[3.3.1]nonan-3,7-diyl)-4-(3-hydroxyphenyl)-4-methoxy-1,2-dioxetane (Comparative Compound) was added to 2 ml of 1.5×10^-1 M DMSO solution of tetrabutylammonium fluoride at 25° C.
The luminescence at the moment of the addition of the comparative compound to the DMSO solution of tetrabutylammonium fluoride was measured with a fluorescence analyzer in the same manner as in Example 1.

[2] = Chemiluminescence on addition to cesium hydroxide in methanol or aqueous methanol, measured with a fluorescence analyzer; type: physicochemical; settings: 25° C.
Procedure: 1 ml of a 3.12×10^-3 M methanol solution of 4-(4-acetyl-3-hydroxyphenyl)-3,3-(bicyclo[3.3.1]nonan-3,7-diyl)-4-methoxy- 1,2-dioxethane (Compound [10]) synthesized in Example 2 was added to 2 ml of a 1.5×10^-1 M methanol solution of cesium hydroxide at 25° C.
The luminescence at the moment of the addition of the compound [10] to the methanol solution of cesium hydroxide was measured with a fluorescence analyzer in the same manner as in Test Example 1.
(§1) The measurement of the luminescence of the compound [10] in Test Example 2 was repeated in the same manner as in Test Example 2 except that the methanol used as the solvent for cesium hydroxide employed in Test Example 2 was replaced by an aqueous solution of methanol (water: 50%) without changing the concentration of cesium in the diluted methanol solution.
Thus, the luminescence at the moment of the addition of the compound [10] to the diluted methanol solution of cesium hydroxide was measured with a fluorescence analyzer in the same manner as in Test Example 1.
as §1, with “97%)” for “50%)”
1 ml of a 3.12×10^-3 M methanol solution of 3,3-(bicyclo[3.3.1]nonan-3,7-diyl)-4-(3-hydroxyphenyl)-4-methoxy-1,2-dioxetane (Comparative Compound) was added to 2 ml of a 1.5×10^-1 M methanol solution of cesium hydroxide at 25° C.
It was tried to measure the luminescence at the moment of the addition of the comparative compound to the methanol solution of cesium hydroxide with a fluorescence analyzer in the same manner as in Test Example 1.
(§2) The measurement of he luminescence of the comparative compound in Comparative Test Example 2 was repeated in the same manner as in Comparative Test Example 2 except that the methanol used as the solvent for cesium hydroxide employed in Comparative Test Example 2 was replaced by an aqueous solution of methanol (water: 50%) without changing the concentration of cesium in the diluted methanol solution.
Thus, the luminescence at the moment of the addition of the comparative compound to the diluted methanol solution of cesium hydroxide was measured with a fluorescence analyzer in the same manner as in Test Example 1.
as §2, with “of the” for “of he”, “(water: 97%)” for “(water: 50%)”

[3] = Aqueous solution of methanol (water: 50%), cesium hydroxide
[4] = Aqueous solution of methanol (water: 97%), cesium hydroxide
[5] = Methanol, cesium hydroxide 1.5×10^-1 M, compound 3.12×10^-3 M
[6] = methanol solution of cesium hydroxide, in words

| Compound | Half-life (sec) of Luminescence [1] | Luminescence Quantum Efficiency [1] | λmax (nm) [1] | Half-life (sec) of Luminescence [2, 3] | Luminescence Quantum Efficiency [2, 3] | λmax (nm) [2, 3] | Half-life (sec) of Luminescence [2, 4] | Luminescence Quantum Efficiency [2, 4] | λmax (nm) [2, 4] | Half-life (sec) of Luminescence [2, 5] | Luminescence Quantum Efficiency [2, 5] | λmax (nm) [2, 5] | half-life of the luminescence [2, 6] | intensity of the luminescence [2, 6] |
| --- | --- | --- | --- | --- | --- | --- | --- | --- | --- | --- | --- | --- | --- | --- |
| COC1(c2ccc(C(C)=O)c(O)c2)OOC12C1CC3CC(C1)CC2C3 (centres unmarked) [Compound [10], 4-(4-acetyl-3-hydroxyphenyl)-3,3-(bicyclo[3.3.1]nonan-3,7-diyl)-4-methoxy-1,2-dioxethane] | 23000 s | 0.13 | 486 nm | 29000 s | 0.023 | 496 nm | 8200 s | 0.0064 | 496 nm | 120000 s | 0.030 | 493 nm |  |  |
| COC1(c2cccc(O)c2)OOC12C1CC3CC(C1)CC2C3 (centres unmarked) [Comparative Compound, 3,3-(bicyclo[3.3.1]nonan-3,7-diyl)-4-(3-hydroxyphenyl)-4-methoxy-1,2-dioxetane, reference compound] | 5.1 s | 0.22 | 465 nm | 452 s | 3.9 × 10^-5 | 472 nm | 173 s | 6.7 × 10^-6 | 474 nm |  |  |  | extremely long | extremely small |
